Molecular target: HCV NS3-4A serine protease (full-length NS3-4A protein) (Hepatitis C virus genotype 1a (isolate 1) (HCV), UniProt P26664)
Experiment: HCV NS3-4A protease assay
Type: biochemical, HCV genotype 1a
Settings: strain HCV-1, fluorogenic peptide substrate, read-out: Protease assay Ex. 12 IC50
Protocol: The inhibitory activity of certain compounds of Table A against HCV NS3-4A serine protease is determined in a homogenous assay using the full-length NS3-4A protein (genotype 1a, strain HCV-1) and a commercially available internally-quenched fluorogenic peptide substrate as described by Taliani, M., et al. 1996 Anal. Biochem. 240:60-67, which is incorporated by reference in its entirety.

Sequence of HCV NS3-4A serine protease (full-length NS3-4A protein) (P26664 1027-1657): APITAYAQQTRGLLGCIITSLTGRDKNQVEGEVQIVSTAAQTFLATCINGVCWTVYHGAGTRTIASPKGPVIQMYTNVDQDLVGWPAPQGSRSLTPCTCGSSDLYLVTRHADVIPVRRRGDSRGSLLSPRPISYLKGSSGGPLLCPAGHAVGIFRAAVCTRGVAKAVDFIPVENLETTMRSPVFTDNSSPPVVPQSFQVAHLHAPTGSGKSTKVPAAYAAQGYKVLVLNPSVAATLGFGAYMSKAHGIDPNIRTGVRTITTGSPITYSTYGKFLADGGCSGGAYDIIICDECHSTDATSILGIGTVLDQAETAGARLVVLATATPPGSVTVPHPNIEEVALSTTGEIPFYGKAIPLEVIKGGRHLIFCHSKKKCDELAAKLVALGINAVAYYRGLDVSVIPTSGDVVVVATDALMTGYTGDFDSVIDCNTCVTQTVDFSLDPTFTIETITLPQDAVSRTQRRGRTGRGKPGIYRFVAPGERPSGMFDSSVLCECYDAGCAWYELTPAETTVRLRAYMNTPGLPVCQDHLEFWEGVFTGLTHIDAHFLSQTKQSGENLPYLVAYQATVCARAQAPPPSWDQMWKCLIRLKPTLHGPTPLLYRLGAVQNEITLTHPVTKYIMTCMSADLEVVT
Sequence of HCV NS3-4A serine protease (full-length NS3-4A protein) (P26664 1658-1711 partner): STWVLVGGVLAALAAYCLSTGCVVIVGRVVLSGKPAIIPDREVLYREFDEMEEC

Row | SMILES | IC50
1 | C=C[C@@H]1C[C@]1(NC(=O)[C@@H]1C[C@@]2(CN1C(=O)[C@@H](NC(=O)[C@@H](NC(=O)[C@@H]1CCCCN1CCF)C1CCCCC1)C(C)(C)C)C(C)(C)C21CCC1)C(=O)NS(=O)(=O)N1CCCC1 [Compound 26, (5R,8S)-7-[(2S)-2-{[(2S)-2-cyclohexyl-2-({[(2S)-1-(2-fluoroethyl)piperidin-2-yl]carbonyl}amino)acetyl]amino}-3,3-dimethylbutanoyl]-10,10-dimethyl-N-{(1R,2S)-1-[(pyrrolidin-1-ylsulfonyl)carbamoyl]-2-vinylcyclopropyl}-7-azadispiro[3.0.4.1]decane-8-carboxamide] | 15 nM
2 | C=C[C@@H]1C[C@]1(NC(=O)[C@@H]1C[C@@]2(CN1C(=O)[C@@H](NC(=O)[C@@H](NC(=O)[C@@H]1CCCN1CC)C1(C)CCCCC1)C1(C)CCOCC1)C(C)(C)C21CCC1)C(=O)NS(=O)(=O)N1CCCC1 [Compound 146, (5R,8S)-7-[(2S)-2-{[(2S)-2-({[(2S)-1-ethylpyrrolidin-2-yl]carbonyl}amino)-2-(1-methylcyclohexyl)acetyl]amino}-2-(4-methyltetrahydro-2H-pyran-4-yl)acetyl]-10,10-dimethyl-N-{(1R,2S)-1-[(pyrrolidin-1-ylsulfonyl)carbamoyl]-2-vinylcyclopropyl}-7-azadispiro[3.0.4.1]decane-8-carboxamide] | 3 nM
3 | CC[C@@H]1C[C@]1(NC(=O)[C@@H]1C[C@@]2(CN1C(=O)[C@@H](NC(=O)[C@@H](NC(=O)[C@@H]1CCCCN1C(C)C)C1CCCCC1)C(C)(C)C)C(C)(C)C21CCC1)C(=O)NS(=O)(=O)N(C)C1CC1 [Compound 90, (5R,8S)-7-[(2S)-2-{[(2S)-2-cyclohexyl-2-({[(2S)-1-isopropylpiperidin-2-yl]carbonyl}amino)acetyl]amino}-3,3-dimethylbutanoyl]-N-[(1R,2R)-1-({[cyclopropyl(methyl)amino]sulfonyl}carbamoyl)-2-ethylcyclopropyl]-10,10-dimethyl-7-azadispiro[3.0.4.1]decane-8-carboxamide] | 6.5 nM
4 | C=C[C@@H]1C[C@]1(NC(=O)[C@@H]1C[C@@]2(CN1C(=O)[C@@H](NC(=O)[C@@H](NC(=O)[C@@H]1CCCCN1C(C)C)C1CCCCC1)C(C)(C)C)C(C)(C)C21CCC1)C(=O)NS(=O)(=O)N(C)C1CCC1 [Compound 49, (5R,8S)-N-[(1R,2S)-1-({[cyclobutyl(methyl)amino]sulfonyl}carbamoyl)-2-vinylcyclopropyl]-7-[(2S)-2-{[(2S)-2-cyclohexyl-2-({[(2S)-1-isopropylpiperidin-2-yl]carbonyl}amino)acetyl]amino}-3,3-dimethylbutanoyl]-10,10-dimethyl-7-azadispiro[3.0.4.1]decane-8-carboxamide] | 3.3 nM
5 | C=C[C@@H]1C[C@]1(NC(=O)[C@@H]1C[C@@]2(CN1C(=O)[C@@H](NC(=O)[C@@H](NC(=O)CC1CCCCO1)C1CCCCC1)C(C)(C)C)C(C)(C)C21CCC1)C(=O)NS(=O)(=O)N1CCCC1 (stereo partly drawn) [Compound 179, (5R,8S)-7-[(2S)-2-({cyclohexyl[(tetrahydro-2H-pyran-2-ylacetyl)amino]acetyl}amino)-3,3-dimethylbutanoyl]-10,10-dimethyl-N-{(1R,2S)-1-[(pyrrolidin-1-ylsulfonyl)carbamoyl]-2-vinylcyclopropyl}-7-azadispiro[3.0.4.1]decane-8-carboxamide] | 25 nM
6 | CC[C@@H]1C[C@]1(NC(=O)[C@@H]1C[C@@]2(CN1C(=O)[C@@H](NC(=O)[C@@H](NC(=O)[C@@H]1CCCCN1C(C)C)C(C)(C)C)C(C)(C)C)C(C)(C)C21CCC1)C(=O)NS(=O)(=O)N1CCCC1 [Compound 30, (5R,8S)-N-{(1R,2R)-2-ethyl-1-[(pyrrolidin-1-ylsulfonyl)carbamoyl]cyclopropyl}-7-[(2S)-2-{[(2S)-2-({[(2S)-1-isopropylpiperidin-2-yl]carbonyl}amino)-3,3-dimethylbutanoyl]amino}-3,3-dimethylbutanoyl]-10,10-dimethyl-7-azadispiro[3.0.4.1]decane-8-carboxamide] | 62 nM
7 | C=C[C@@H]1C[C@]1(NC(=O)[C@@H]1C[C@@]2(CN1C(=O)[C@@H](NC(=O)[C@@H](NC(=O)c1cnccn1)C1CCOCC1)C(C)(C)C)C(C)(C)C21CCC1)C(=O)NS(=O)(=O)N1CCCC1 [Compound 43, (5R,8S)-7-[(2S)-3,3-dimethyl-2-{[(2S)-2-[(pyrazin-2-ylcarbonyl)amino]-2-(tetrahydro-2H-pyran-4-yl)acetyl]amino}butanoyl]-10,10-dimethyl-N-{(1R,2S)-1-[(pyrrolidin-1-ylsulfonyl)carbamoyl]-2-vinylcyclopropyl}-7-azadispiro[3.0.4.1]decane-8-carboxamide] | 60 nM
8 | C=C[C@@H]1C[C@]1(NC(=O)[C@@H]1C[C@@]2(CN1C(=O)[C@@H](NC(=O)[C@@H](NC(=O)[C@@H]1CCCCN1C(C)C)C1CCCC1)C(C)(C)C)C(C)(C)C21CCC1)C(=O)NS(=O)(=O)N1CCCC1 [Compound 58, (5R,8S)-7-[(2S)-2-{[(2S)-2-cyclopentyl-2-({[(2S)-1-isopropylpiperidin-2-yl]carbonyl}amino)acetyl]amino}-3,3-dimethylbutanoyl]-10,10-dimethyl-N-{(1R,2S)-1-[(pyrrolidin-1-ylsulfonyl)carbamoyl]-2-vinylcyclopropyl}-7-azadispiro[3.0.4.1]decane-8-carboxamide] | 3.5 nM
9 | CC[C@@H]1C[C@]1(NC(=O)[C@@H]1C[C@@]2(CN1C(=O)[C@@H](NC(=O)[C@@H](NC(=O)[C@@H]1CCCN1C(C)C)C1CCCCC1)C(C)(C)C)C(C)(C)C21CCC1)C(=O)NS(=O)(=O)N(CC)CC [Compound 117, (5R,8S)-7-[(2S)-2-{[(2S)-2-cyclohexyl-2-({[(2S)-1-isopropylpyrrolidin-2-yl]carbonyl}amino)acetyl]amino}-3,3-dimethylbutanoyl]-N-[(1R,2R)-1-{[(diethylamino)sulfonyl]carbamoyl}-2-ethylcyclopropyl]-10,10-dimethyl-7-azadispiro[3.0.4.1]decane-8-carboxamide] | 5.5 nM
10 | [2H]C([2H])([2H])C([2H])([2H])N1CCC[C@H]1C(=O)NC(C(=O)N[C@H](C(=O)N1C[C@]2(C[C@H]1C(=O)N[C@]1(C(=O)NS(=O)(=O)N3CCCC3)C[C@H]1C=C)C(C)(C)C21CCC1)C(C)(C)C)C1CCCCC1 (stereo partly drawn) [Compound 138, (5R,8S)-7-[(2S)-2-{[(2S)-2-cyclohexyl-2-({[(2S)-1-d5-ethylpyrrolidin-2-yl]carbonyl}amino)acetyl]amino}-3,3-dimethylbutanoyl]-10,10-dimethyl-N-{(1R,2S)-1-[(pyrrolidin-1-ylsulfonyl)carbamoyl]-2-vinylcyclopropyl}-7-azadispiro[3.0.4.1]decane-8-carboxamide-d5] | 3 nM
11 | C=C[C@@H]1C[C@]1(NC(=O)[C@@H]1C[C@@]2(CN1C(=O)[C@@H](NC(=O)[C@@H](NC(=O)CN(C)C)C1CCCCC1)C(C)(C)C)C(C)(C)C21CCC1)C(=O)NS(=O)(=O)N1CCCC1 [Compound 200, (5R,8S)-7-{(2S)-2-[(cyclohexyl{[(dimethylamino)acetyl]amino}acetyl)amino]-3,3-dimethylbutanoyl}-10,10-dimethyl-N-{(1R,2S)-1-[(pyrrolidin-1-ylsulfonyl)carbamoyl]-2-vinylcyclopropyl}-7-azadispiro[3.0.4.1]decane-8-carboxamide] | 8 nM
12 | C=C[C@@H]1C[C@]1(NC(=O)[C@@H]1C[C@@]2(CN1C(=O)[C@@H](NC(=O)[C@@H](NC(=O)[C@@H]1CCCCN1C(C)C)C1(C)CCCCC1)C1(C)CCOCC1)C(C)(C)C21CCC1)C(=O)NS(=O)(=O)N1CCCC1 [Compound 147, (5R,8S)-7-[(2S)-2-{[(2S)-2-({[(2S)-1-isopropylpiperidin-2-yl]carbonyl}amino)-2-(1-methylcyclohexyl)acetyl]amino}-2-(4-methyltetrahydro-2H-pyran-4-yl)acetyl]-10,10-dimethyl-N-{(1R,2S)-1-[(pyrrolidin-1-ylsulfonyl)carbamoyl]-2-vinylcyclopropyl}-7-azadispiro[3.0.4.1]decane-8-carboxamide] | 1.5 nM
13 | C=C[C@@H]1C[C@]1(NC(=O)[C@@H]1C[C@@]2(CN1C(=O)[C@@H](NC(=O)[C@@H](NC(=O)C(C)(C)N1CCCCC1)C1CCCCC1)C(C)(C)C)C(C)(C)C21CCC1)C(=O)NS(=O)(=O)N1CCCC1 [Compound 25, (5R,8S)-7-[(2S)-2-({(2S)-2-cyclohexyl-2-[(2-methyl-2-piperidin-1-ylpropanoyl)amino]acetyl}amino)-3,3-dimethylbutanoyl]-10,10-dimethyl-N-{(1R,2S)-1-[(pyrrolidin-1-ylsulfonyl)carbamoyl]-2-vinylcyclopropyl}-7-azadispiro[3.0.4.1]decane-8-carboxamide] | 8 nM
14 | C=C[C@@H]1C[C@]1(NC(=O)[C@@H]1C[C@@]2(CN1C(=O)[C@@H](NC(=O)OC(C)(C)C)C(C)(C)C)C(C)(C)C21CCC1)C(=O)NS(=O)(=O)N1CCCC1 [Compound 1, tert-butyl [(1S)-1-{[(5R,8S)-10,10-dimethyl-8-({(1R,2S)-1-[(pyrrolidin-1-ylsulfonyl)carbamoyl]-2-vinylcyclopropyl}carbamoyl)-7-azadispiro[3.0.4.1]dec-7-yl]carbonyl}-2,2-dimethylpropyl]carbamate] | 400 nM
15 | C=C[C@@H]1C[C@]1(NC(=O)[C@@H]1C[C@@]2(CN1C(=O)[C@@H](NC(=O)[C@@H](NC(=O)[C@@H]1CCCN1CC)C1CCCCC1)C(C)(C)C)C(C)(C)C21CCC1)C(=O)NS(=O)(=O)N(CC)CCC [Compound 107, (5R,8S)-7-[(2S)-2-{[(2S)-2-cyclohexyl-2-({[(2S)-1-ethylpyrrolidin-2-yl]carbonyl}amino)acetyl]amino}-3,3-dimethylbutanoyl]-N-[(1R,2S)-1-({[ethyl(propyl)amino]sulfonyl}carbamoyl)-2-vinylcyclopropyl]-10,10-dimethyl-7-azadispiro[3.0.4.1]decane-8-carboxamide] | 9 nM

From patent publication US8613914B2, “Peptidomimetic sulfamide compounds and antiviral uses thereof” (Novartis AG, priority 2009, dated 2013)
